Measurements as given in patent US7943628B2, “Pyrimidine derivatives” (Pfizer Limited, priority 2005, dated 2011).

target: T1, histamine H4 receptor (Homo sapiens, UniProt Q9H3N8); assay: H4 binding, method 2 ([3H]-histamine binding with Ysi WGA beads on CHO cell membranes); conditions: H4 binding, method 2; Ki calculated from IC50 (Cheng-Prussoff); read-out: Method 2 (Ki (nM))
T1 construct: expressed in transfected cells; host or cells: CHO cells
Procedure: Cell pellets from CHO cells expressing the histamine H4 receptor were homogenised in ice-cold 50 mM Tris-HCl/0.5 mM CaCl2 buffer containing a protease inhibitor cocktail (Roche®, United Kingdom) using a ground glass homogeniser. Homogenates were centrifuged at 48000 g for 30 min at 4° C. The membrane pellet was resuspended in fresh buffer and the centrifugation step was repeated as described above. The membrane pellet was resuspended in 50 mM Tris-HCl in the same volume as the original cell pellet. Aliquots of membrane preparations were stored at −80° C. and were used for [^3H]-Histamine binding experiments.
Cell membranes (15 μg/well) were pre-incubated for 120 min shaking at 4° C. with Ysi WGA beads (250 μg/well) in 50 mM Tris-HCl (pH 7.4) followed by centrifugation at 1500 rpm for 5 minutes and resuspension in 50 mM Tris-HCl (pH 7.4). The membrane/bead mixture (15 μg membrane/250 μg beads well) was incubated for 90 minutes shaking at room temperature with 6.5 nM [2,5-^3H] Histamine dihydrochloride (30-60 Ci/mmol) in 50 mM Tris-HCl (pH 7.4), with or without competing H4 ligands. Non-specific binding was defined with 10 μM JNJ7777120. Bound radiolabel was determined using scintillation counting techniques after 90 minutes.

T1 sequence (Q9H3N8 whole entry): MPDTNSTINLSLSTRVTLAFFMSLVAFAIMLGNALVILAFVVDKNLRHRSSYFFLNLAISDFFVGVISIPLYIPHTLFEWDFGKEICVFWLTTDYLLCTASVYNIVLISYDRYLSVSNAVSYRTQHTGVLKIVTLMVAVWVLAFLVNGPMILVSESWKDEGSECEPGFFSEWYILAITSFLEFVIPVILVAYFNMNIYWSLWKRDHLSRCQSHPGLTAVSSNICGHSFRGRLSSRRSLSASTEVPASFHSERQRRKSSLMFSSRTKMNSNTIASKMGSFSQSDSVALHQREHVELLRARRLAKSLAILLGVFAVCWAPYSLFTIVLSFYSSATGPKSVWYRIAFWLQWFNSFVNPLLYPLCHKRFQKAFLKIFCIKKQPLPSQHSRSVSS

**Q.** For `CNC1CN(c2cc(NC(C)C)ncn2)C1` [Example 46, N-Isopropyl-6-[3-(methylamino)azetidin-1-yl]pyrimidin-4-amine], which Ki is on record?
**A.** 40.1 nM

**Q.** `CC(C)(C)CCNc1cc(N[C@H]2CCN(Cc3ccccc3)C2)nc(N)n1` [Example 338, N^4-[(3S)-1-Benzylpyrrolidin-3-yl]-N6-(3,3-dimethylbutyl)pyrimidine-2,4,6-triamine] was tested. Which Ki did it give?
**A.** 7930 nM

**Q.** Which Ki does the source give for `CN1C[C@@H]2CN(c3cc(NCCC(C)(C)C)nc(N)n3)C[C@@H]2C1` [Example 40, N^4-(3,3-Dimethylbutyl)-6-[(3aR*,6aS*)-5-methylhexahydro-pyrrolo[3,4-c]pyrrol-2(1H)-yl]pyrimidine-2,4-diamine] here?
**A.** 192 nM

**Q.** For `CCNc1cc(N2C[C@H]3CN(C)C[C@H]3C2)ncn1` [Example 117, N-Ethyl-6-[(3aR*,6aS*)-5-methylhexahydropyrrolo[3,4-c]pyrrol-2(1H)-yl]pyrimidin-4-amine], which Ki is on record?
**A.** 1620 nM

**Q.** Which Ki does the source give for `CN1CCN(c2cc(NC[C@H]3CCCO3)ncn2)CC1` [Example 113, 6-(4-Methylpiperazin-1-yl)-N-[(2R)-tetrahydrofuran-2-ylmethyl]pyrimidin-4-amine] here?
**A.** 1480 nM

**Q.** Which Ki does the source give for `C[C@H]1CN(c2cc(NCC(C)(C)C)nc(N)n2)CCN1` [Example 96, N^4-(2,2-Dimethylpropyl)-6-[(3S)-3-methylpiperazin-1-yl]pyrimidine-2,4-diamine] here?
**A.** 3.77 nM

**Q.** With `CNC1CN(c2cc(NCc3ccccc3F)nc(N)n2)C1` [Example 78, N^4-(2-Fluorobenzyl)-6-[3-(methylamino)azetidin-1-yl]pyrimidine-2,4-diamine] as the compound, how does the Ki read?
**A.** 3.66 nM

**Q.** `CC(C)CNc1cc(N2C[C@H]3CCCN[C@H]3C2)ncn1` (relative stereo) [Example 125, N-Isobutyl-6-[(4aR*,7aR*)-octahydro-6H-pyrrolo[3,4-b]pyridin-6-yl]pyrimidin-4-amine] was tested. Which Ki did it give?
**A.** 223 nM

**Q.** `CN(C)[C@@H]1CCN(c2cc(NCCC(C)(C)C)ncn2)C1` [Example 18, 6-[(3R)-3-(Dimethylamino)pyrrolidin-1-yl]-N-(3,3-dimethylbutyl)pyrimidin-4-amine] was tested. Which Ki did it give?
**A.** 387 nM

**Q.** Which Ki does the source give for `CNC1CN(c2cc(N3CCCCC3)ncn2)C1` [Example 56, N-Methyl-1-(6-piperidin-1-ylpyrimidin-4-yl)azetidin-3-amine] here?
**A.** 1590 nM

**Q.** Which Ki does the source give for `CC(C)(C)CCNc1cc(N2CC(N)C2)ncn1` [Example 118, 6-(3-Aminoazetidin-1-yl)-N-(3,3-dimethylbutyl)pyrimidin-4-amine] here?
**A.** 1090 nM

**Q.** How did the Ki turn out when `c1nc(NCC2CC2)cc(N2C[C@H]3CCCN[C@H]3C2)n1` (relative stereo) [Example 123, N-(Cyclopropylmethyl)-6-[(4aR*,7aR*)-octahydro-6H-pyrrolo[3,4-b]pyridin-6-yl]pyrimidin-4-amine] was run?
**A.** 103 nM

**Q.** With `CCNc1cc(N2CC[C@@H](N(C)C)C2)ncn1` [Example 21, 6-[(3R)-3-(Dimethylamino)pyrrolidin-1-yl]-N-ethyl-pyrimidin-4-amine] as the compound, how does the Ki read?
**A.** 722 nM

**Q.** Which Ki does the source give for `CNC1CN(c2cc(NCc3ccccc3)ncn2)C1` [Example 51, N-Benzyl-6-[3-(methylamino)azetidin-1-yl]pyrimidin-4-amine] here?
**A.** 161 nM

**Q.** `CNC1CN(c2cc(NCC3CC3)ncn2)C1` [Example 44, Cyclopropylmethyl-[6-(3-methylamino-azetidin-1-yl)-pyrimidin-4-yl]-amine] was tested. Which Ki did it give?
**A.** 20.5 nM

**Q.** Which Ki does the source give for `CCNc1cc(N2CC[C@@H](NC)C2)ncn1` [Example 13, N-Ethyl-6-[(3R)-3-(methyl-amino)pyrrolidin-1-yl]pyrimidin-4-amine] here?
**A.** 51.8 nM

**Q.** `Cc1c(NC(C)C)ncnc1N1CCN(C)CC1` [Example 331, N-isoPropyl-5-methyl-6-(4-methylpiperazin-1-yl)pyrimidin-4-amine] was tested. Which Ki did it give?
**A.** 2670 nM

**Q.** Which Ki does the source give for `CNc1cc(N2C[C@H]3CCCN[C@H]3C2)nc(N)n1` (racemic) [Example 25, N^4-Methyl-6-[(4aR*,7aR*)-octahydro-6H-pyrrolo[3,4-b]pyridin-6-yl]pyrimidine-2,4-diamine] here?
**A.** 154 nM

**Q.** `CN1CCN(c2cc(N(C)CC3CC3)ncn2)CC1` [Example 334, N-(Cyclopropylmethyl)-N-methyl-6-(4-methylpiperazin-1-yl)pyrimidin-4-amine] was tested. Which Ki did it give?
**A.** 5070 nM

**Q.** For `CCNc1cc(N2C[C@H]3CN(C)C[C@H]3C2)nc(N)n1` [Example 36, N^4-Ethyl-6-[(3aR*,6aS*)-5-methylhexahydro-pyrrolo[3,4-c]pyrrol-2(1H)-yl]pyrimidine-2,4-diamine], which Ki is on record?
**A.** 1620 nM

**Q.** Which Ki does the source give for `c1ccc(CNc2cc(N[C@@H]3CCNC3)ncn2)cc1` [Example 337, N-Benzyl-N′-[(3R)-pyrrolidin-3-yl]pyrimidine-4,6-diamine] here?
**A.** 7220 nM

**Q.** How did the Ki turn out when `CC(C)(C)CNc1cc(N2CCC(N3CCCC3)C2)nc(N)n1` (centres unmarked) [Example 327, 6-[(3-S)-1,3′-Bipyrrolidin-1′-yl]-N^4-(2,2-dimethylpropyl)pyrimidine-2,4-diamine] was run?
**A.** 376 nM

**Q.** `CNC1CN(c2cc(NCc3ccccc3Cl)nc(N)n2)C1` [Example 89, N^4-(2-Chlorobenzyl)-6-[3-(methylamino)azetidin-1-yl]pyrimidine-2,4-diamine] was tested. Which Ki did it give?
**A.** 1.93 nM

**Q.** With `CC(C)CNc1cc(N2C[C@H]3CN(C)C[C@H]3C2)nc(N)n1` [Example 37, N^4-Isobutyl-6-[(3aR*,6aS*)-5-methylhexahydro-pyrrolo[3,4-c]pyrrol-2(1H)-yl]pyrimidine-2,4-diamine] as the compound, how does the Ki read?
**A.** 181 nM

**Q.** Which Ki does the source give for `CN[C@H]1CCN(c2cc(NCCC(C)(C)C)ncn2)C1` [Example 17, N-(3,3-Dimethylbutyl)-6-[(3S)-3-(methylamino)pyrrolidin-1-yl]pyrimidin-4-amine] here?
**A.** 483 nM

**Q.** Which Ki does the source give for “N-Methyl-6-[3-(methylamino)azetidin-1- yl]pyrimidin-4-amine [Example 58]” here?
**A.** 301 nM

**Q.** How did the Ki turn out when `COCCNc1cc(N[C@@H]2CCNC2)ncn1` [Example 335, N-(2-Methoxyethyl)-N′-[(3R)-pyrrolidin-3-yl]pyrimidine-4,6-diamine] was run?
**A.** 5350 nM

**Q.** `CNC1CN(c2cc(NCc3ccc(OC(F)(F)F)cc3)nc(N)n2)C1` [Example 76, 6-[3-(Methylamino)azetidin-1-yl]-N^4-[4-(trifluoromethoxy)benzyl]pyrimidine-2,4-diamine] was tested. Which Ki did it give?
**A.** 125 nM

**Q.** `CC(C)(C)CCNc1cc(N2CC3C(N)C3C2)nc(N)n1` (stereo not drawn) [Example 333, 6-[(1R*,5S*,6s*)-6-Amino-3-azabicyclo[3.1.0]hex-3-yl]-N^4-(3,3-dimethylbutyl)pyrimidine-2,4-diamine] was tested. Which Ki did it give?
**A.** 3120 nM

**Q.** Which Ki does the source give for `CC(C)CCNc1cc(N[C@@H]2CCNC2)ncn1` [Example 329, N-(3-Methylbutyl)-N′-[(3R)-pyrrolidin-3-yl]pyrimidine-4,6-diamine] here?
**A.** 1420 nM

**Q.** How did the Ki turn out when `CC(C)(C)CCNc1cc(N2C[C@H]3CCCN[C@H]3C2)ncn1` (racemic) [Example 328, N-(3,3-Dimethylbutyl)-6-[(4aR*,7aR*)-octahydro-6H-pyrrolo[3,4-b]pyridin-6-yl]pyrimidin-4-amine] was run?
**A.** 554 nM

**Q.** How did the Ki turn out when `CNC1CN(c2cc(NCc3ccccc3)nc(N)n2)C1` [Example 79, N^4-Benzyl-6-[3-(methylamino)azetidin-1-yl]pyrimidine-2,4-diamine] was run?
**A.** 11.2 nM

**Q.** `C[C@@H]1CN(c2cc(NCCC(C)(C)C)nc(N)n2)CCN1C` [Example 124, N^4-(3,3-Dimethylbutyl)-6-[(3R)-3,4-dimethylpiperazin-1-yl]pyrimidine-2,4-diamine] was tested. Which Ki did it give?
**A.** 537 nM

same assay, conditions: Method 2 (Ki (nM)), H4 binding, method 2; Ki calculated from IC50 (Cheng-Prussoff)

**Q.** For `Nc1nc(NCC2CC2)cc(N2C[C@H]3CCCN[C@H]3C2)n1` (racemic) [Example 28, N^4-(Cyclopropylmethyl)-6-[(4aR*,7aR*)-octahydro-6H-pyrrolo[3,4-b]pyridin-6-yl] pyrimidine-2,4-diamine], which Ki is on record?
**A.** 21.3 nM

**Q.** `CC(C)Nc1cc(N2C[C@H]3CCCN[C@H]3C2)nc(N)n1` (racemic) [Example 24, N^4Isopropyl-6-[(4aR*,7aR*)-octahydro6H-pyrrolor[3,4-b]pyridin-6-yl]pyrimidine-2,4-diamine] was tested. Which Ki did it give?
**A.** 30.8 nM

**Q.** How did the Ki turn out when `CC(C)CCNc1cc(N2C[C@H]3CCCN[C@H]3C2)nc(N)n1` (racemic) [Example 29, N^4-(3-Methylbutyl)-6-[(4aR*, 7aR*)-octahydro-6H-pyrrolo [3,4-b]pyridin-6-yl] pyrimidine-2,4-diamine] was run?
**A.** 82.9 nM

**Q.** `CC(C)(C)CNc1cc(N2CCN3CCCC3C2)nc(N)n1` (centres unmarked) [Example 141, N^4-(2,2-Dimethylpropyl)-6-(hexahydropyrrolo[1,2-a]pyrazin-2(1H)-yl)pyrimidine-2,4-diamine] was tested. Which Ki did it give?
**A.** 4.97 nM

**Q.** For `CC(C)CNc1cc(N2C[C@H]3CCCN[C@H]3C2)nc(N)n1` (racemic) [Example 27, N^4-Isobutyl-6-[(4aR*,7aR*)-octahydro-6H-pyrrolo[3,4-b]pyridin-6-yl]pyrimidine-2,4-diamine], which Ki is on record?
**A.** 22.4 nM

**Q.** With `Nc1nc(NCC2CCCC2)cc(N2C[C@H]3CCCN[C@H]3C2)n1` (racemic) [Example 33, N^4-(Cyclopentylmethyl)-6-[(4aR*,7aR*)-octahydro-6H-pyrrolo[3,4-b]pyridin-6-yl] pyrimidine-2,4-diamine] as the compound, how does the Ki read?
**A.** 84.1 nM

same assay, conditions: at 40 μM

**Q.** For `COCCNc1cc(N[C@H]2CCNC2)ncn1` [Example 344, N-(2-Methoxyethyl)-N′-[(3S)-pyrrolidin-3-yl]pyrimidine-4,6-diamine], which “Method 2, % at 40 μM” value is on record?
**A.** 40% at 40 μM

**Q.** For `CN1CCC(Nc2cc(NCCC(C)(C)C)ncn2)CC1` [Example 343, N-(3,3-Dimethylbutyl)-N′-(1-methylpiperidin-4-yl)pyrimidine-4,6-diamine], which “Method 2, % at 40 μM” value is on record?
**A.** 53% at 40 μM
